For 13 molecules, EC50 results are on record in patent publication US8664387B2, “Pyridoquinazolinone M1 receptor positive allosteric modulators” (Merck Sharp & Dohme Corp., priority 2009, dated 2014).

This test concerns the target T1, acetylcholine muscarinic M1 receptor (Homo sapiens, UniProt P11229).
T1 construct: expressed in transfected cells; host or cells: CHOnfat cells (CHOnfat/hM1; geneticin selection)
T1 sequence (P11229 1-460): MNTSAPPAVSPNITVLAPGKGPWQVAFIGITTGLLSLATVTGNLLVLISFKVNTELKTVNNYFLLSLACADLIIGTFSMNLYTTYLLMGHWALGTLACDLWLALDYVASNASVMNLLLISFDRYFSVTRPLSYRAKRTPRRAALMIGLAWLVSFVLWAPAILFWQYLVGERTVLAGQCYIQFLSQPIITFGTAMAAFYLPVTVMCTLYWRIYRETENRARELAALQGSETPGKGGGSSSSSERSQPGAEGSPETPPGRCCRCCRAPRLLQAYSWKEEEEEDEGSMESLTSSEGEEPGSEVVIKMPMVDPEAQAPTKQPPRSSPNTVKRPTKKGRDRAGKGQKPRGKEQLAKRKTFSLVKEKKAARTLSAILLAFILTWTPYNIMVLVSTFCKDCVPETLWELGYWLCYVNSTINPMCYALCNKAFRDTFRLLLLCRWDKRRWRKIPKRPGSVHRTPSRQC
Description: muscarinic FLIPR calcium assay, M1 positive allosteric modulation. In kind it is cell-based. Conditions: CHOnfat/hM1 cells, FLIPR intracellular Ca2+, 4 min preincubation, then EC20 acetylcholine (3 nM final); read-out: IP Value (inflection point). Here is the method:
The assay studies the effect of one or several concentrations of test compounds on basal or acetylcholine-stimulated Ca^2+ levels using FLIPR.
Compounds are prepared and subjected to a preincubation period of 4 min. Thereafter, a single EC20 concentration of acetylcholine is added to each well (3 nM final). The intracellular Ca^2+ level of each sample is measured and compared to an acetylcholine control to determine any modulatory activity.
Cells: CHOnfat/hM1, hM2, hM3 or hM4 cells are plated 24 hr before the assay at a density of 18,000 cells/well (100 μL) in a 384 well plate. CHOnfat/hM1 and CHOnfat/hM3 Growth Medium: 90% DMEM (Hi Glucose); 10% HI FBS; 2 mM L-glutamine; 0.1 mM NEAA; Pen-Strep; and 1 mg/ml Geneticin, are added. For M2Gqi5CHOnfat and M4Gqi5CHOnfat cells, an additional 600 ug/ml hygromycin is added.
Equipment: 384 well plate, 120 μL addition plate; 96-well Whatman 2 ml Uniplate Incubator, 37° C., 5% CO2; Skatron EMBLA-384 Plate Washer; Multimek Pipetting System; Genesis Freedom 200 System; Mosquito System; Temo Nanoliter Pipetting System; and FLIPR^384 Fluorometric Imaging Plate Reader System are used.
Buffers. Assay Buffer: Hanks Balanced Salt Solution, with 20 mM Hepes, 2.5 mM Probenecid (Sigma P-8761) first dissolved in 1 N NaOH, 1% Bovine Serum Albumin (Sigma A-9647). Dye Loading Buffer: Assay Buffer plus 1% Fetal Bovine Serum and Fluo-4AM/Pluronic Acid Mixture. 2 mM Fluo-4AM ester stock in DMSO (Molecular Probes F-14202) Concentration of 2 μM in buffer for a final concentration of 1 μM in Assay. 20% Pluronic Acid Solution stock, with concentration of 0.04% in Buffer, 0.02% in Assay.
65 μL of 2 mM Fluo-4AM are mixed with 130 μL of 20% Pluronic Acid. The resulting solution and 650 μL FBS is added to the assay buffer for a total volume of 65 mL. Positive Controls: 4-Br-A23187: 10 mM in DMSO; final concentration 10 μM. Acetylcholine: 10 mM in water, working stock at both 20 μM and 30 µM in assay buffer, final concentration of 10 μM. This is used to check the maximum stimulation of the CHOK1/hM1 cells. 20 μM (2×) acetylcholine is added in the preincubation part of the assay, and the 30 μM (3×) stock is added in the second part. (EC20)Acetylcholine: 10 mM in water, working stock of 9 nM (3×), and final concentration in assay is 3 nM. This is used after the preincubation with test compounds. Addition of the EC20 Acetylcholine to each well with a test compound will ascertain any modulator activity. 24 wells contain 3 nM Acetylcholine alone as a control.
Determining Activity of Putative Compounds: • Screening Plate: Compounds are titrated in 96-well plates (columns 2-11), 100% DMSO, started at a concentration of 15 mM (150× stock concentration), and 3-fold serial dilutions using Genesis Freedom200 System. Four 96-well plates are combined into a 384-well plate using Mosquito Nanoliter Pipetting System by transferring 1 μl of serial diluted compounds to each well, and 1 mM acetylcholine (100× stock concentration) were added as a control. Using Temo, 49 μl assay buffer is added to each well of the 384-well plate right before assay.
In a 96-well Whatman 2 ml Uniplate, 9 nM Acetylcholine (3×) is pipetted into wells corresponding to the screening compounds, and into control wells. The 30 μM acetylcholine control (3×) is added into control wells, and the 3× agonist plate is transferred into a 384 well plate.
Cells are washed three times with 100 μL of buffer, leaving 30 μL of buffer in each well. Using Multimek, 30 μL of Dye Loading Buffer is added into each well and incubated at 37° C., 5% CO2 for up to one hr.
After 60 min, the cells are washed three times with 100 μL of buffer, leaving 30 μL of buffer in each well. The cell plate, screening plate, and agonist addition plates are placed on the platform in the FLIPR and the door closed. A signal test to check background fluorescence and basal fluorescence signal is performed. Laser intensity is adjusted if necessary. […]
For `O=c1c2cc(Cc3ccc(Cl)nc3)c3cnccc3c2ncn1[C@H]1CCCC[C@@H]1O` [Example 1, 6-[(6-Chloropyridin-3-yl)methyl]-3-[(1S,2S)-2-hydroxycyclohexyl]pyrido[3,4-h]quinazolin-4(3H)-one], the EC50 was 38 nM.
Regarding `O=c1c2cc(Cc3ccc(Cl)nc3)c3cnccc3c2ncn1[C@H]1CCOC[C@@H]1O` [Example 2, 6-[(6-Chloropyridin-3-yl)methyl]-3-[(3R,4S)-3-hydroxytetrahydro-2H-pyran-4-yl]pyrido[3,4-h]quinazolin-4(3H)-one], the EC50 was 176 nM.
For `Cc1ccc(Cc2cc3c(=O)n([C@H]4CCCC[C@@H]4O)cnc3c3ccncc23)cn1` [Example 4, 3-[(1S,2S)-2-Hydroxycyclohexyl]-6-[(6-methylpyridin-3-yl)methyl]pyrido[3,4-h]quinazolin-4(3H)-one] the value was 41 nM.
The result for `COc1ccc(Cc2cc3c(=O)n([C@H]4CCCC[C@@H]4O)cnc3c3ccncc23)cn1` [Example 5, 3-[(1S,2S)-2-Hydroxycyclohexyl]-6-[(6-methoxypyridin-3-yl)methyl]pyrido[3,4-h]quinazolin-4(3H)-one] reads 110 nM; that for `CSc1ccc(Cc2cc3c(=O)n([C@H]4CCCC[C@@H]4O)cnc3c3ccncc23)cn1` [Example 6, 3-[(1S,2S)-2-Hydroxycyclohexyl]-6-{[6-(methylthio)pyridine-3-yl]methyl}pyrido[3,4-h]quinazolin-4(3H)-one], 71 nM; that for `O=c1c2cc(Cc3ccc(-n4cccn4)nc3)c3ncccc3c2ncn1[C@H]1CCCC[C@@H]1O` [Example 7, 3-[(1S,2S)-2-Hydroxycyclohexyl]-6-{[6-(1H-pyrazol-1-yl)pyridine-3-yl]methyl}pyrido[2,3-h]quinazolin-4(3H)-one], 29 nM.
For `Cn1cc(-c2ccc(Cc3cc4c(=O)n([C@H]5CCCC[C@@H]5O)cnc4c4ccncc34)cn2)cn1` [Example 8, 3-[(1S,2S)-2-Hydroxycyclohexyl]-6-{[6-(1-methyl-1H-pyrazol-4-yl)pyridine-3-yl]methyl}pyrido[3,4-h]quinazolin-4(3H)-one] the value was 6 nM.
Turning to `O=c1c2cc(Cc3ccc(-c4cnccn4)nc3)c3cnccc3c2ncn1[C@H]1CCCC[C@@H]1O` [Example 9, 3-[(1S,2S)-2-Hydroxycyclohexyl]-6-[(6-pyrazin-2-ylpyridin-3-yl)methyl]pyrido[3,4-h]quinazolin-4(3H)-one], the EC50 came to 64 nM.
Turning to `O=Cc1ccc(Cc2cc3c(=O)n([C@H]4CCCC[C@@H]4O)cnc3c3ccncc23)cc1` [Example 10, 4-({3-[(1S,2S)-2-Hydroxycyclohexyl]-4-oxo-3,4-dihydropyrido[3,4-h]quinazolin-6-yl}methyl)benzaldehyde], the EC50 is 36 nM.
For `CC(O)c1ccc(Cc2cc3c(=O)n([C@H]4CCCC[C@@H]4O)cnc3c3ccncc23)cc1` (stereo partly drawn) [Example 11, 3-[(1S,2S)-2-Hydroxycyclohexyl]-6-[4-(1-hydroxyethyl)benzyl]pyrido[3,4-h]quinazolin-4(3H)-one] the value was 92 nM; for `CCC(O)c1ccc(Cc2cc3c(=O)n([C@H]4CCCC[C@@H]4O)cnc3c3ccncc23)cc1` (stereo partly drawn) [Example 12, 3-[(1S,2S)-2-Hydroxycyclohexyl]-6-[4-(1-hydroxypropyl)benzyl]pyrido[3,4-h]quinazolin-4(3H)-one], 130 nM.
The result for `O=c1c2cc(Cc3ccc(N4CCOCC4)cc3)c3cnccc3c2ncn1[C@H]1CCCC[C@@H]1O` [Example 13, 3-[(1S,2S)-2-Hydroxycyclohexyl]-6-(4-morpholin-4-ylbenzyl)pyrido[3,4-h]quinazolin-4(3H)-one] reads 91 nM; that for `Cc1cc(Cc2cc3c(=O)n([C@H]4COCC[C@@H]4O)cnc3c3cccnc23)ccn1` [Example 14, 3-[(3S,4S)-4-Hydroxytetrahydro-2H-pyran-3-yl]-6-[(2-methylpyridin-4-yl)methyl]pyrido[2,3-h]quinazolin-4(3H)-one], 851 nM.
